For twelve compounds, IC50 results are on record in patent US20240294551A1 (AMGEN INC., priority 2022, published 2024).

Assay [1] has as its target His-tagged KRAS G12D protein (Homo sapiens (Human), UniProt P01116, G12D). The assay is described as follows: KRAS G12D TR-FRET Assay. The class given is binding. Particulars: read-out: KRAS G12D Binding IC50. A digest of the protocol: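 His-tagged KRAS G12D (diluted to 20 nM in pH 7.4 HEPES buffer with 10 mM MgCl2 and 10 μM GDP) was preincubated with titrated compound for 30 min at room temperature. Biotinylated KRPep-2d peptide (diluted to 20 nM) was then added for 1 h, and displacement was monitored by TR-FRET.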
Background: In TR-FRET formats the signal depends on donor and acceptor labels being close together.

The target of assay [2] is GDP-bound KRAS protein (aa 1-169), containing both G12D and C118A amino acid substitutions (Homo sapiens (Human), UniProt P01116, C118A/G12D). The assay is described as follows: KRAS G12D Coupled Nucleotide Exchange Assay. The format is biochemical. Conditions: read-out: KRAS G12D Coupled Exchange IC50.
Chain of GDP-bound KRAS protein (aa 1-169), containing both G12D and C118A amino acid substitutions (P01116 other isoform, or with tags, fused parts or gaps G12D/C118A): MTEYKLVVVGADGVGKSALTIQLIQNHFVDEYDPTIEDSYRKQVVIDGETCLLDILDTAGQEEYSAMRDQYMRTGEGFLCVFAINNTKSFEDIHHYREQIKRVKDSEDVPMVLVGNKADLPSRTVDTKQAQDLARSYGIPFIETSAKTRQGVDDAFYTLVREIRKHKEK

Chain of His-tagged KRAS G12D protein (P01116 other isoform, or with tags, fused parts or gaps G12D): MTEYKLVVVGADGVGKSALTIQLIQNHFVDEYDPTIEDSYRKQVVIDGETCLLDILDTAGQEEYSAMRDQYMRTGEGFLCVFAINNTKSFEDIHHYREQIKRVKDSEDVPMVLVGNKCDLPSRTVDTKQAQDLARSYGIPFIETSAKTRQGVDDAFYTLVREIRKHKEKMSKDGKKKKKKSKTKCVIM

In the case of `Cc1cc2[nH]ncc2c2c1CCCCO[C@H](C)[C@H]1CN(CCO1)c1nc(OC[C@@]34CCCN3C[C@H](F)C4)nc3c(F)c-2ncc13` [Example 241, (16R,17R)-30-fluoro-24-(((2R,7aS)-2-fluorotetrahydro-1H-pyrrolo[1,2-a]pyrrol-7a(5H)-yl)methoxy)-9,16-dimethyl-15,18-dioxa-5,6,21,23,25,29-hexaazahexacyclo[24.3.1.1~17,21~.0~2,10~.0~3,7~.0~22,27~]hentriaconta-1(30),2,4,7,9,22,24,26,28-nonaene], the values for the half-maximal inhibitory concentration (IC50) in assay [1] and in assay [2] were 1.29 µM and 1.41 µM, respectively.

Take `Cc1cc2[nH]ncc2c2c1CCCCO[C@@H](C)[C@H]1CN(CCO1)c1nc(OC[C@@]34CCCN3C[C@H](F)C4)nc3c(F)c-2ncc13` [Example 242, (16S,17R)-30-fluoro-24-(((2R,7aS)-2-fluorotetrahydro-1H-pyrrolo[1,2-a]pyrrol-7a(5H)-yl)methoxy)-9,16-dimethyl-15,18-dioxa-5,6,21,23,25,29-hexaazahexacyclo[24.3.1.1~17,21~.0~2,10~.0~3,7~.0~22,27~]hentriaconta-1(30),2,4,7,9,22,24,26,28-nonaene]: the IC50 – broadly, the concentration needed to halve the response being measured – in assay [1] worked out at 1.14 µM; in assay [2], 1.05 µM.

Consider `Cc1cc2[nH]ncc2c2c1CCCCO[C@H](C)[C@@H]1CN(CCO1)c1nc(OC[C@@]34CCCN3C[C@H](F)C4)nc3c(F)c-2ncc13` [Example 243, (16R,17S)-30-fluoro-24-(((2R,7aS)-2-fluorotetrahydro-1H-pyrrolo[1,2-a]pyrrol-7a(5H)-yl)methoxy)-9,16-dimethyl-15,18-dioxa-5,6,21,23,25,29-hexaazahexacyclo[24.3.1.1~17,21~.0~2,10~.0~3,7~.0~22,27~]hentriaconta-1(30),2,4,7,9,22,24,26,28-nonaene], for which the values for the concentration for half-maximal inhibition (IC50) in assay [1] and in assay [2] were 4.48 µM and 4.07 µM, respectively.

For `Cc1cc2[nH]ncc2c2c1CCCCO[C@@H](C)[C@@H]1CN(CCO1)c1nc(OC[C@@]34CCCN3C[C@H](F)C4)nc3c(F)c-2ncc13` [Example 244, (16S,17S)-30-fluoro-24-(((2R,7aS)-2-fluorotetrahydro-1H-pyrrolo[1,2-a]pyrrol-7a(5H)-yl)methoxy)-9,16-dimethyl-15,18-dioxa-5,6,21,23,25,29-hexaazahexacyclo[24.3.1.1~17,21~.0~2,10~.0~3,7~.0~22,27~]hentriaconta-1(30),2,4,7,9,22,24,26,28-nonaene], the concentration for half-maximal inhibition (IC50) was found to be 0.027 µM in assay [1] and 0.03 µM in assay [2].

As for `Fc1c2ncc3c(nc(OC[C@@]45CCCN4C[C@H](F)C5)nc13)N1CCC[C@@H](C1)c1coc(n1)CCCc1c(Cl)cc3[nH]ncc3c1-2` [Example 245, (18S)-9-chloro-31-fluoro-25-(((2R,7aS)-2-fluorotetrahydro-1H-pyrrolo[1,2-a]pyrrol-7a(5H)-yl)methoxy)-15-oxa-5,6,22,24,26,30,33-heptaazaheptacyclo[25.3.1.1~14,17~.1~18,22~.0~2,10~.0~3,7~.0~23,28~]tritriaconta-1(31),2,4,7,9,14(33),16,23,25,27,29-undecaene], the IC50 was 0.583 µM in assay [1] and 0.344 µM in assay [2].

Consider `Fc1c2ncc3c(nc(OC[C@@]45CCCN4C[C@H](F)C5)nc13)N1CCC[C@H](C1)Oc1nccc(n1)CCc1c(Cl)cc3[nH]ncc3c1-2` [Example 257, (19R)-9-chloro-32-fluoro-26-(((2R,7aS)-2-fluorotetrahydro-1H-pyrrolo[1,2-a]pyrrol-7a(5H)-yl)methoxy)-18-oxa-5,6,16,23,25,27,31,34-octaazaheptacyclo[26.3.1.1~13,17~.1~19,23~.0~2,10~.0~3,7~.0~24,29~]tetratriaconta-1(32),2,4,7,9,13(34),14,16,24,26,28,30-dodecaene], for which the half-inhibitory concentration (IC50) was 0.262 µM in assay [1] and 0.178 µM in assay [2].

Regarding `CN1C(=O)COCC[C@H]2CCc3cc4[nH]ncc4c(c32)-c2ncc3c(nc(OC[C@@]45CCCN4C[C@H](F)C5)nc3c2F)N2CCC[C@@H]1C2` [Example 278, (15R,22R)-34-fluoro-8-(((2R,7aS)-2-fluorotetrahydro-1H-pyrrolo[1,2-a]pyrrol-7a(5H)-yl)methoxy)-16-methyl-19-oxa-3,7,9,11,16,28,29-heptaazaheptacyclo[20.9.1.1~2,6~.1~11,15~.0~5,10~.0~25,32~.0~27,31~]tetratriaconta-1(31),2(34),3,5,7,9,25(32),26,29-nonaen-17-one], the half-inhibitory concentration (IC50) in assay [1] worked out at 19.3 µM; in assay [2], 5.9 µM.

For the compound `CN1C(=O)COCC[C@@H]2CCc3cc4[nH]ncc4c(c32)-c2ncc3c(nc(OC[C@@]45CCCN4C[C@H](F)C5)nc3c2F)N2CCC[C@@H]1C2` [Example 279, (15R,22S)-34-fluoro-8-(((2R,7aS)-2-fluorotetrahydro-1H-pyrrolo[1,2-a]pyrrol-7a(5H)-yl)methoxy)-16-methyl-19-oxa-3,7,9,11,16,28,29-heptaazaheptacyclo[20.9.1.1~2,6~.1~11,15~.0~5,10~.0~25,32~.0~27,31~]tetratriaconta-1(31),2(34),3,5,7,9,25(32),26,29-nonaen-17-one], the concentration for half-maximal inhibition (IC50) in assay [1] came to 0.333 µM; in assay [2] it was 0.071 µM.

In the case of `O=C1N[C@H]2C[C@@H](O)CN(C2)c2nc(OC[C@@]34CCCN3C[C@H](F)C4)nc3c(F)c(ncc23)-c2c(c(Cl)cc3[nH]ncc23)CCCO1` [Example 285, (17S,19R)-9-chloro-30-fluoro-24-(((2R,7aS)-2-fluorotetrahydro-1H-pyrrolo[1,2-a]pyrrol-7a(5H)-yl)methoxy)-19-hydroxy-14-oxa-5,6,16,21,23,25,29-heptaazahexacyclo[24.3.1.1~17,21~.0~2,10~.0~3,7~.0~22,27~]hentriaconta-1(30),2,4,7,9,22,24,26,28-nonaen-15-one], the IC50 in assay [1] amounted to 1.91 µM; in assay [2], 0.61 µM.

With `CN1C(=O)OCCCc2c(Cl)cc3[nH]ncc3c2-c2ncc3c(nc(OC[C@@]45CCCN4C[C@H](F)C5)nc3c2F)N2C[C@H](O)C[C@H]1C2` [Example 287, (17S,19R)-9-chloro-30-fluoro-24-(((2R,7aS)-2-fluorotetrahydro-1H-pyrrolo[1,2-a]pyrrol-7a(5H)-yl)methoxy)-19-hydroxy-16-methyl-14-oxa-5,6,16,21,23,25,29-heptaazahexacyclo[24.3.1.1~17,21~.0~2,10~.0~3,7~.0~22,27~]hentriaconta-1(30),2,4,7,9,22,24,26,28-nonaen-15-one], the half-maximal inhibitory concentration (IC50) in assay [1] is 1.23 µM; in assay [2], 0.376 µM.

`Cc1cc2[nH]ncc2c2c1CCCOC(=O)N[C@@]1(C)CCCCN(C1)c1nc(OC[C@@]34CCCN3C[C@H](F)C4)nc3c(F)c-2ncc13` [Example 293, (26S)-32-fluoro-4-(((2R,7aS)-2-fluorotetrahydro-1H-pyrrolo[1,2-a]pyrrol-7a(5H)-yl)methoxy)-18,26-dimethyl-23-oxa-1,3,5,9,14,15,25-heptaazahexacyclo[24.4.1.1~6,10~.0~2,7~.0~11,19~.0~12,16~]dotriaconta-2,4,6(32),7,9,11,13,16,18-nonaen-24-one]: the values for the concentration for half-maximal inhibition (IC50) in assay [1] and in assay [2] were 50 µM and 16.4 µM, respectively.

Regarding `Fc1c2ncc3c(nc(OC[C@@]45CCCN4C[C@H](F)C5)nc13)N1CCCC[C@@H](C1)c1cnn(n1)CCCc1c(Cl)cc3[nH]ncc3c1-2` [Example 295, (1S)-10-chloro-33-fluoro-24-(((2R,7aS)-2-fluorotetrahydro-1H-pyrrolo[1,2-a]pyrrol-7a(5H)-yl)methoxy)-4,5,13,14,19,23,25,27,34-nonaazaheptacyclo[25.4.1.1~2,5~.1~18,22~.0~9,17~.0~12,16~.0~21,26~]tetratriaconta-2(34),3,9,11,14,16,18(33),19,21,23,25-undecaene], the IC50 was found to be 2.25 µM in assay [1] and 1.08 µM in assay [2].
